Results taken from article PMC3491871 (The Journal of biological chemistry, 2004).

How the values were obtained:
trypanothione reductase [1] = target: T1, trypanothione reductase (Trypanosoma cruzi, UniProt P28593); assay: crystal structure of the covalent adduct at […] Å; assay type: biochemical; details: read-out: Ki
trypanothione reductase [2] = target: T1, trypanothione reductase; assay: protection of oxidised enzyme from QM inactivation; assay type: biochemical

T1 sequence (P28593 whole entry): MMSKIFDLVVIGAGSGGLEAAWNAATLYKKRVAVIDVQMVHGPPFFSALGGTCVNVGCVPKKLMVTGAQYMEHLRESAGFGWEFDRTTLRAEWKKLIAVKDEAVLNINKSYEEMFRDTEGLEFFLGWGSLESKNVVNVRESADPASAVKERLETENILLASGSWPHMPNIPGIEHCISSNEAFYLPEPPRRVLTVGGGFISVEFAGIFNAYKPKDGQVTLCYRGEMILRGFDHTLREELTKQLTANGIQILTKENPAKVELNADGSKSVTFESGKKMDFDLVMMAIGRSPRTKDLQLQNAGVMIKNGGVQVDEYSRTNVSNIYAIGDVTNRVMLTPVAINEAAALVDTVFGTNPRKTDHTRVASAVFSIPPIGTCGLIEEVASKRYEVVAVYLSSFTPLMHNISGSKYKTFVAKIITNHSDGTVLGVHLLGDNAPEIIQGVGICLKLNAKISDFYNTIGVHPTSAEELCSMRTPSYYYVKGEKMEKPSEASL

Compound	KI (inactivation) (trypanothione reductase [1]) [µM]	Ki (trypanothione reductase [2]) [µM]
COc1ccc2nc3cc(Cl)ccc3c(NC(C)CCCN(CCCl)CCCl)c2c1 (racemic) [QM, quinacrine mustard]	41 ± 8	–
CCN(CC)CCCC(C)Nc1c2ccc(Cl)cc2nc2ccc(OC)cc12 (centres unmarked) [quinacrine]	–	208 ± 45
